For 33 compounds, IC50 results are on record in BindingDB's records for doi:10.1021/jm00139a009 (1981).

The target in this experiment is T1, Dihydrofolate reductase (Rattus norvegicus, UniProt Q920D2).
T1 sequence (Q920D2 whole entry): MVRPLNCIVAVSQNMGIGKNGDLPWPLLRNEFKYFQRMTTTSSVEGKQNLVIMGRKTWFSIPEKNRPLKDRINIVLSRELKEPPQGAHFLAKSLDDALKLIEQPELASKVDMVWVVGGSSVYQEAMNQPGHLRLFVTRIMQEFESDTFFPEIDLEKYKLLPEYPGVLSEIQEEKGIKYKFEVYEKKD
Kind of experiment: Inhibitory activity against dihydrofolate reductase of rat liver.

The term IC50 denotes the point on the concentration scale where inhibition reaches its midpoint. Read a high IC50 as a need for much substance. Turning to `Nc1nc(N)c2cc([S+]([O-])c3ccc4ccccc4c3)ccc2n1` (stereo not drawn), the IC50 was 0.00708 µM.

As to `Nc1nc(N)c2cc(NC(=O)Cc3ccc(Cl)cc3)ccc2n1`, the IC50 is 0.0229 µM. In the case of `Nc1nc(N)c2c(CCc3ccc4ccccc4c3)cccc2n1` [TCMDC-141975], the IC50 is 0.0199 µM. As for `Nc1nc(N)c2c(CSc3ccc4ccccc4c3)cccc2n1`, the IC50 is 0.01 µM.

For `Nc1nc(N)c2cc(C=O)ccc2n1`, the concentration for half-maximal inhibition (IC50) came out at 10 µM. With `Nc1nc(N)c2c(S(=O)(=O)c3ccc4ccccc4c3)cccc2n1` the figure was 15.1 µM. With `Nc1nc(N)c2c(Cl)c(NC(=O)Cc3ccc(Cl)c(Cl)c3)ccc2n1` the figure was 0.024 µM; with `Nc1nc(N)c2cc(Sc3cccc(C(F)(F)F)c3)ccc2n1` [WR-159412], 0.0363 µM; with `Nc1nc(N)c2cc(Sc3ccc(Cl)c(Cl)c3)ccc2n1`, 0.011 µM. With `Nc1nc(N)c2c(Cl)c(Br)ccc2n1` the figure was 0.1 µM. `Nc1nc(N)c2c(Sc3ccc(Cl)c(Cl)c3)cccc2n1`: half-maximal inhibition (IC50) required 0.2 µM. The figure for `Nc1nc(N)c2c(/C=C\c3ccc4ccccc4c3)cccc2n1` is 5.25 µM. With `Nc1nc(N)c2c(Cl)c(N)ccc2n1` the figure was 0.661 µM. As for `Nc1nc(N)c2c(Cl)c(NC(=O)Cc3ccc4ccccc4c3)ccc2n1`, the half-maximal inhibitory concentration (IC50) was found to be 0.00501 µM. As for `Nc1nc(N)c2c(Sc3ccc4ccccc4c3)cccc2n1`, the half-inhibitory concentration (IC50) was found to be 0.00708 µM. Consider `Cc1c(NC(=O)Cc2cccc(Br)c2)ccc2nc(N)nc(N)c12`, for which inhibition was half-maximal at 0.0339 µM (IC50).

Compound `Cc1c(NC(=O)Cc2ccc3ccccc3c2)ccc2nc(N)nc(N)c12` yielded an IC50 of 0.00417 µM. With `Nc1nc(N)c2c(CSc3ccc(Cl)cc3)cccc2n1` the figure was 0.0199 µM; with `Nc1nc(N)c2c(Cl)c(Cl)ccc2n1`, 0.2 µM; with `Nc1nc(N)c2c(/C=C/c3ccc4ccccc4c3)cccc2n1`, 3.02 µM.

Take `Cc1cccc2nc(N)nc(N)c12` [GNF-Pf-690]: the half-inhibitory concentration (IC50) stood at 0.813 µM. With `Nc1nc(N)c2cc(NCc3ccc(Cl)c(Cl)c3)ccc2n1` the figure was 0.0182 µM; with `Cc1c(NC(=O)Cc2ccc(Cl)c(Cl)c2)ccc2nc(N)nc(N)c12`, 0.017 µM; with `Nc1nc(N)c2cc(NC(=O)Cc3ccc4ccccc4c3)ccc2n1`, 0.00501 µM. `NCc1ccc2nc(N)nc(N)c2c1` had a 50% inhibitory concentration (IC50) of 9.33 µM. The figure for `Nc1nc(N)c2c([S+]([O-])c3ccc(Cl)c(Cl)c3)cccc2n1` (stereo not drawn) is 55 µM; for `Nc1ccc2nc(N)nc(N)c2c1` [QUINAZOLINE-2,4,6-TRIAMINE] it is 26.9 µM. With `Nc1nc(N)c2cc(Cl)ccc2n1` the figure was 3.98 µM; with `Cc1ccc2nc(N)nc(N)c2c1`, 2.19 µM. Compound `Nc1nc(N)c2c(S(=O)(=O)c3ccc(Cl)c(Cl)c3)cccc2n1` registered a half-maximal inhibitory concentration (IC50) of 57.5 µM. The figure for `Nc1nc(N)c2c(Cl)c(NCc3cccc(Br)c3)ccc2n1` is 0.00759 µM; for `Nc1nc(N)c2c(Cl)cccc2n1` it is 0.562 µM. With `O=[N+]([O-])c1ccc(/C=C/C=C/c2ccccc2)cc1`, the IC50 was found to be 0.00398 µM.
